Like-named read-outs stand apart in the source and are kept apart here.
Target: T1, E. coli CsgA (Escherichia coli, UniProt P28307)
T1 construct: made in house; host or cells: E. coli NEB 3016 slyD::kan, pET11d
Experiment: In vitro ThioflavinT assay of CsgA aggregation (CsgA ThT Assay)
Assay type: biochemical
Details: 1005 minutes; for remaining activity at 25 µM: compound 25 μM; for remaining activity at 100 µM: compound 100 μM
In short: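 Purified C-terminal His-tagged CsgA, monomerised by desalting and 30-kDa filtration, at 2-20 μM with 20-40 μM ThT in 50 mM potassium phosphate pH 7.3, 1% DMSO, compounds 3.125-200 uM; room temperature, fluorescence (ex 438/em 495 nm) read every 15 min. Background-subtracted signal expressed as percent inhibition versus vehicle at 6-6.5 or 8-9 h, or as percent control AUC.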

[1] = read-out: CsgA ThT Assay (10 μM CsgA) % Control AUC at 1005 minutes, 25 μM (activity range), CsgA 10 μM, black plates, class symbol
[2] = read-out: CsgA ThT Assay (10 μM CsgA) % Control AUC at 1005 minutes, 25 μM, mean AUC as % of DMSO control, CsgA 10 μM, black plates
[3] = read-out: CsgA ThT Assay (10 μM CsgA) % Control AUC at 1005 minutes, 100 μM (activity range), CsgA 10 μM, black plates, class symbol
[4] = read-out: CsgA ThT Assay (10 μM CsgA) % Control AUC at 1005 minutes, 100 μM, mean AUC as % of DMSO control, CsgA 10 μM, black plates

T1 sequence (P28307 23-151): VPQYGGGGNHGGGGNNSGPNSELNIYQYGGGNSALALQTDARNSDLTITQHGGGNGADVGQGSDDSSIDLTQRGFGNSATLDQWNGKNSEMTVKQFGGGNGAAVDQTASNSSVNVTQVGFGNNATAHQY

SMILES: O=C(O)C1CSc2c(-c3cccc(C(F)(F)F)c3)c(Cc3cccc4ccccc34)cc(=O)n21 (single isomer, unassigned) [Compound 011a, 7-(naphthalen-1-ylmethyl)-5-oxo-8-(3-(trifluoromethyl)phenyl)-2,3-dihydro-5H-thiazolo[3,2-a]pyridine-3-carboxylic acid]
- remaining activity at 25 µM [1]: 31 to 60%
- remaining activity at 25 µM [2]: 47%
- remaining activity at 100 µM [3]: 31 to 60%
- remaining activity at 100 µM [4]: 41%

SMILES: COc1ccc(CN2C[C@@H](C(=O)O)n3c(c(-c4cccc(C(F)(F)F)c4)c(Cc4cccc5ccccc45)cc3=O)S2(=O)=O)cc1 (single isomer, unassigned) [Compound 026a]
- remaining activity at 25 µM [1]: 31 to 60%
- remaining activity at 25 µM [2]: 41%

SMILES: O=C(O)C1CN(CCCO)S(=O)(=O)c2c(-c3cccc(C(F)(F)F)c3)c(Cc3cccc4ccccc34)c(NC3CCCC3)c(=O)n21 (centres unmarked) [Compound 120, 7-(cyclopentylamino)-2-(3-hydroxypropyl)-8-(naphthalen-1-ylmethyl)-6-oxo-9-(3-(trifluoromethyl)phenyl)-3,4-dihydro-2H,6H-pyrido[1,2-e][1,2,5]thiadiazine-4-carboxylic acid 1,1-dioxide]
- remaining activity at 25 µM [1]: 11 to 31%
- remaining activity at 25 µM [2]: 28%
- remaining activity at 100 µM [3]: 11 to 31%
- remaining activity at 100 µM [4]: 12%

SMILES: O=C(O)C1CSc2c(-c3cccc(C(F)(F)F)c3)c(Cc3cccc4ccccc34)nc(=O)n21 (centres unmarked) [Compound 022, 7-(naphthalen-1-ylmethyl)-5-oxo-8-(3-(trifluoromethyl)phenyl)-2,3-dihydro-5H-thiazolo[3,2-c]pyrimidine-3-carboxylic acid]
- remaining activity at 25 µM [1]: > 60%
- remaining activity at 25 µM [2]: 70%
- remaining activity at 100 µM [3]: 11 to 31%
- remaining activity at 100 µM [4]: 23%

SMILES: CN1CC(C(=O)O)n2c(c(-c3cccc(C(F)(F)F)c3)c(Cc3cccc4ccccc34)c(N)c2=O)S1(=O)=O (centres unmarked) [Compound 074, 7-amino-2-methyl-8-(naphthalen-1-ylmethyl)-6-oxo-9-(3-(trifluoromethyl)phenyl)-3,4-dihydro-2H,6H-pyrido[1,2-e][1,2,5]thiadiazine-4-carboxylic acid 1,1-dioxide]
- remaining activity at 25 µM [1]: 11 to 31%
- remaining activity at 25 µM [2]: 28%
- remaining activity at 100 µM [3]: 11 to 31%
- remaining activity at 100 µM [4]: 24%

SMILES: O=C(O)CN1CC(C(=O)O)n2c(c(-c3cccc(C(F)(F)F)c3)c(Cc3cccc4ccccc34)cc2=O)S1(=O)=O (centres unmarked) [Compound 018, 2-(carboxymethyl)-8-(naphthalen-1-ylmethyl)-6-oxo-9-(3-(trifluoromethyl)phenyl)-3,4-dihydro-2H,6H-pyrido[1,2-e][1,2,5]thiadiazine-4-carboxylic acid 1,1-dioxide]
- remaining activity at 25 µM [1]: > 60%
- remaining activity at 25 µM [2]: 95%
- remaining activity at 100 µM [3]: 31 to 60%
- remaining activity at 100 µM [4]: 60%

SMILES: CN1CC(C(=O)O)n2c(c(-c3cccc(C(F)(F)F)c3)c(Cc3cccc4ccccc34)c(C(N)=O)c2=O)S1(=O)=O (centres unmarked) [Compound 109, 7-carbamoyl-2-methyl-8-(naphthalen-1-ylmethyl)-6-oxo-9-(3-(trifluoromethyl)phenyl)-3,4-dihydro-2H,6H-pyrido[1,2-e][1,2,5]thiadiazine-4-carboxylic acid 1,1-dioxide]
- remaining activity at 25 µM [1]: 31 to 60%
- remaining activity at 25 µM [2]: 55%
- remaining activity at 100 µM [3]: 11 to 31%
- remaining activity at 100 µM [4]: 22%

SMILES: CCCN1CC(C(=O)O)n2c(c(-c3cccc(C(F)(F)F)c3)c(Cc3cccc4ccccc34)c(NC3CCCC3)c2=O)S1(=O)=O (centres unmarked) [Compound 126, 7-(cyclopentylamino)-8-(naphthalen-1-ylmethyl)-6-oxo-2-propyl-9-(3-(trifluoromethyl)phenyl)-3,4-dihydro-2H,6H-pyrido[1,2-e][1,2,5]thiadiazine-4-carboxylic acid 1,1-dioxide]
- remaining activity at 25 µM [1]: 31 to 60%
- remaining activity at 25 µM [2]: 36%
- remaining activity at 100 µM [3]: 31 to 60%
- remaining activity at 100 µM [4]: 40%

SMILES: CN1CC(C(=O)O)n2c1c(-c1cccc(C(F)(F)F)c1)c(Cc1cccc3ccccc13)c(Br)c2=O (centres unmarked) [Compound 119, 6-bromo-1-methyl-7-(naphthalen-1-ylmethyl)-5-oxo-8-(3-(trifluoromethyl)phenyl)-1,2,3,5-tetrahydroimidazo[1,2-a]pyridine-3-carboxylic acid]
- remaining activity at 25 µM [1]: 31 to 60%
- remaining activity at 25 µM [2]: 47%
- remaining activity at 100 µM [3]: 31 to 60%
- remaining activity at 100 µM [4]: 35%

SMILES: O=C(O)C1C[S+]([O-])c2c(-c3cccc(C(F)(F)F)c3)c(Cc3cccc4ccccc34)cc(=O)n21 (racemic) [Compound 027b, 7-(naphthalen-1-ylmethyl)-5-oxo-8-(3-(trifluoromethyl)phenyl)-2,3-dihydro-5H-thiazolo[3,2-a]pyridine-3-carboxylic acid 1-oxide]
- remaining activity at 25 µM [1]: > 60%
- remaining activity at 25 µM [2]: 108%
- remaining activity at 100 µM [3]: > 60%
- remaining activity at 100 µM [4]: 74%

SMILES: CCCN1CC(C(=O)O)n2c(c(-c3cccc(C(F)(F)F)c3)c(Cc3cccc4ccccc34)c(NC3CCOCC3)c2=O)S1(=O)=O (centres unmarked) [Compound 127, 8-(naphthalen-1-ylmethyl)-6-oxo-2-propyl-7-((tetrahydro-2H-pyran-4-yl)amino)-9-(3-(trifluoromethyl)phenyl)-3,4-dihydro-2H,6H-pyrido[1,2-e][1,2,5] thiadiazine-4-carboxylic acid 1,1-dioxide]
- remaining activity at 25 µM [1]: 11 to 31%
- remaining activity at 25 µM [2]: 26%
- remaining activity at 100 µM [3]: < 10%
- remaining activity at 100 µM [4]: 7%

SMILES: O=C(O)C1CN(CCCCO)S(=O)(=O)c2c(-c3cccc(C(F)(F)F)c3)c(Cc3cccc4ccccc34)c(NC3CCCC3)c(=O)n21 (centres unmarked) [Compound 121, 7-(cyclopentylamino)-2-(4-hydroxybutyl)-8-(naphthalen-1-ylmethyl)-6-oxo-9-(3-(trifluoromethyl)phenyl)-3,4-dihydro-2H,6H-pyrido[1,2-e][1,2,5]thiadiazine-4-carboxylic acid 1,1-dioxide]
- remaining activity at 25 µM [1]: 31 to 60%
- remaining activity at 25 µM [2]: 32%
- remaining activity at 100 µM [3]: 11 to 31%
- remaining activity at 100 µM [4]: 15%

SMILES: CC(C)N1CC(C(=O)O)n2c(c(-c3cccc(C(F)(F)F)c3)c(Cc3cccc4ccccc34)c(NC3CCCC3)c2=O)S1(=O)=O (centres unmarked) [Compound 123, 7-(cyclopentylamino)-2-isopropyl-8-(naphthalen-1-ylmethyl)-6-oxo-9-(3-(trifluoromethyl)phenyl)-3,4-dihydro-2H,6H-pyrido[1,2-e][1,2,5]thiadiazine-4-carboxylic acid 1,1-dioxide]
- remaining activity at 25 µM [1]: 11 to 31%
- remaining activity at 25 µM [2]: 26%
- remaining activity at 100 µM [3]: 11 to 31%
- remaining activity at 100 µM [4]: 25%

SMILES: CN1CC(C(N)=O)n2c(c(-c3cccc(C(F)(F)F)c3)c(Cc3cccc4ccccc34)cc2=O)S1(=O)=O (centres unmarked) [Compound 030, 2-methyl-8-(naphthalen-1-ylmethyl)-6-oxo-9-(3-(trifluoromethyl)phenyl)-3,4-dihydro-2H,6H-pyrido[1,2-e][1,2,5]thiadiazine-4-carboxamide 1,1-dioxide]
- remaining activity at 25 µM [1]: > 60%
- remaining activity at 25 µM [2]: 82%

SMILES: CN(C)CCN1CC(C(=O)O)n2c(c(-c3cccc(C(F)(F)F)c3)c(Cc3cccc4ccccc34)cc2=O)S1(=O)=O (centres unmarked) [Compound 017, 2-(2-(dimethylamino)ethyl)-8-(naphthalen-1-ylmethyl)-6-oxo-9-(3-(trifluoromethyl)phenyl)-3,4-dihydro-2H,6H-pyrido[1,2-e][1,2,5]thiadiazine-4-carboxylic acid 1,1-dioxide]
- remaining activity at 25 µM [1]: > 60%
- remaining activity at 25 µM [2]: 95%
- remaining activity at 100 µM [3]: > 60%
- remaining activity at 100 µM [4]: 70%
